Here are results for 85 molecules from PubChem BioAssay AID1645865 (Buhrlage Lab, Dana-Farber Cancer Institute and Novartis …, 2021).

The assay has as its target Ubiquitin carboxyl-terminal hydrolase 30 (Homo sapiens) (UniProt Q70CQ3). As to the kind of experiment: ubiquitin-specific protease 30 DUB inhibitors, concentration-effect, biochemical, validation of primary actives (AID 1645865). Particulars: purified USP30, Ub-rhodamine cleavage, fluorescence, 2 h.

Activity calls are given as the source filed them.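 How the source made its calls: active means maximal inhibition of the USP30 enzyme reaching 30% or more across the dose series; inactive means the rest.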 Where only a bound is given, the exact number is not on record here.

Sequence of Ubiquitin carboxyl-terminal hydrolase 30 (Homo sapiens) (Q70CQ3 whole entry, looked up): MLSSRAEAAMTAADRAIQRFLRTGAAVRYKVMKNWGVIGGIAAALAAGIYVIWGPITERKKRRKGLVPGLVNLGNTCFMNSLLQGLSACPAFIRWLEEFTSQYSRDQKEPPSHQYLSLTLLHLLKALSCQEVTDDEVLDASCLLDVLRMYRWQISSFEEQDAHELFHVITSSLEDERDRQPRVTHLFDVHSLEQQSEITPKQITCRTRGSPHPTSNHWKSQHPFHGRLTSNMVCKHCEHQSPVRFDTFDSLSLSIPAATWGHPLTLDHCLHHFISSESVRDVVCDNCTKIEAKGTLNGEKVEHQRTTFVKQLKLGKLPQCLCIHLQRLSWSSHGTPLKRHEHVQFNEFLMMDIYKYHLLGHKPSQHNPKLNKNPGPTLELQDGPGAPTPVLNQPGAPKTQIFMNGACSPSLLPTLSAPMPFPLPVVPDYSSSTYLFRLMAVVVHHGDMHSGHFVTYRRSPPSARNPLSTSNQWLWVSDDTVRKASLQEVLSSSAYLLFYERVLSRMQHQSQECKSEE

What is called IC50 is the point on the concentration scale where inhibition reaches its midpoint. With `Cc1c(C)n(-c2ccccc2)c2ncn(CC(=O)NCCCc3ccccc3)c(=O)c12`, the IC50 is 44.9 µM.

For the molecule `CNC(=O)c1cc2c(=O)n3cccc(C)c3nc2n1Cc1ccccc1`, the IC50 is 2.29 µM.

For `NS(=O)(=O)c1ccc(CNS(=O)(=O)c2ccc(-c3ccccn3)s2)cc1`, the IC50 was 24.5 µM.

With `Cc1ccc(C2c3c(-c4ccccc4O)n[nH]c3C(=O)N2Cc2ccco2)cc1` (stereo not given), the 50% inhibitory concentration (IC50) is 21.3 µM.

Take `COc1cc2c(cc1OC)-c1cc(Nc3ccc(Br)cc3)nc(=O)n1CC2`: the IC50 is 0.939 µM.

In the case of `CCCCc1nc2sc3c(SCC(=O)NCc4ccccc4)ncnc3c2c2c1CCC2`, the IC50 is > 50 µM (inactive).

`O=S(=O)(c1ccc2c(c1)OCCO2)N(Cc1ccccc1)Cc1nnc(-c2ccccc2)o1`: the IC50 is > 50 µM (inactive).

In the case of `Cc1nc(-c2ccccc2F)sc1C(=O)Nc1cccnc1`, the IC50 was > 50 µM (inactive).

With `COc1ccc(-n2c(=O)c(CCC(=O)O)nc3ccccc32)cc1`, the IC50 was > 50 µM (inactive).

On to `COc1ccc(OC)c(NC(=O)CS(=O)(=O)c2cn(CC(=O)N3CCC(C)CC3)c3ccccc23)c1`, for which the IC50 was 42 µM.

Consider `CCc1ccc(Nc2cc(C(=O)NCCCOC(C)C)c3ccccc3n2)cc1`, for which the IC50 is 8.88 µM.

On to `Cc1ccc(-c2nc(-c3cccs3)cc(C(F)(F)F)c2C#N)cc1`, for which the IC50 is > 50 µM (inactive).

`O=C(COc1ccc2oc3c(c2c1)CCCC3)Nc1ccccn1`: the IC50 was 30.6 µM.

Take `O=C(Cn1c(=O)n(Cc2ccc3c(c2)OCO3)c(=O)c2ncccc21)c1ccc(Cl)cc1`: the IC50 was 32.1 µM.

With `Cn1c(C(=O)NCc2ccccn2)cc2c(=O)[nH]c3ccccc3c21`, the IC50 is > 50 µM (inactive).

For the molecule `COc1ccc2[nH]cc(S(=O)(=O)c3ccc(C)c(F)c3)c(=O)c2c1`, the IC50 was 46.4 µM.

`CCC[C@H]1O[C@@H]2CC(=O)O[C@@H]2C2=C1C(=O)c1c(O)cccc1C2=O`: the IC50 was > 50 µM (inactive).

Take `COc1ccccc1C(=O)N1CCC(S(=O)(=O)c2ccc(-c3ccco3)cc2)CC1`: the IC50 is > 50 µM (inactive).

On to `CC(=O)c1ccc(NC(=O)/C(=C/c2ccco2)n2nnnc2-c2ccccc2)cc1`, for which the IC50 was > 50 µM (inactive).

For `COc1cccc2sc(N3CCN(c4nc5ccccc5s4)CC3)nc12`, the IC50 was 39.3 µM.

For `CCC(=O)N1c2ccccc2NC2=C(C(=O)CC(c3ccccc3OCc3ccccc3)C2)C1c1ccccc1` (stereo not given), the IC50 was 2.39 µM.

In the case of `CCn1ccc2c(cc(C(=O)Nc3cc(F)ccc3F)n2C)c1=O`, the IC50 was > 50 µM (inactive).

For `COc1ccc(Cl)cc1-n1nnc(C(=O)N2CCc3ccccc3C2)c1C`, the IC50 was > 50 µM (inactive).

Take `COc1ccc(NC(=O)Cn2cc(C(=O)c3ccc(F)cc3)c(=O)c3cc(C)ccc32)cc1`: the IC50 was 20.7 µM.

Turning to `Cc1c(CC(=O)Nc2nn[nH]n2)c(=O)oc2cc3c(cc12)CCC1(CCCCC1)O3`, the IC50 was > 50 µM (inactive).

With `COc1cccc2cc(C(=O)Nc3nc(-c4ccncc4)cs3)oc12`, the half-maximal inhibitory concentration (IC50) is 0.161 µM.

`CN=C(N)NCCC/C=C/CCCC(C)CC(C)C1OC(=O)/C=C/C(C)C(O)CC(O)C(C)C(O)CCC(C)C(O)CC2(O)OC(CC(OC(=O)CC(=O)O)CC(O)CC(O)C(C)C(O)/C=C/C1C)CC(O)C2O` (stereo not given): the IC50 was 27.5 µM.

For the molecule `CC(c1ccccc1)n1c(-c2ccc(F)cc2)nc2c(c(=O)c3ccccc3n2C)c1=O` (stereo not given), the IC50 was 2.06 µM.

Take `Cc1ccc(S(=O)(=O)N(C)C)cc1NC(=O)Cc1ccc(Cl)c(Cl)c1`: the IC50 is > 50 µM (inactive).

Turning to `Fc1cccc(-n2cc(-c3noc(-c4ccccn4)n3)nn2)c1`, the IC50 was 27 µM.

`Cc1ccc(Cc2nc(-c3ccc(=O)[nH]c3)no2)cc1`: the IC50 is > 50 µM (inactive).

For the molecule `CCCn1c(=O)c(-c2ccc(C(=O)NCc3ccc(OC)cc3)cc2)nc2cccnc21`, the IC50 is 1.84 µM.

As to `CCCC(=O)c1c[nH]c(C(=O)NCc2ccc(F)cc2)c1`, the IC50 was 17.4 µM.

Consider `CCn1cc2c(n1)c(=O)n(Cc1ccccc1)c(=O)n2CC(=O)Nc1ccc(OC)cc1`, for which the IC50 was 2.58 µM.

In the case of `O=C(Nc1cccc(Br)c1)c1cc(-c2cccnc2)n[nH]1`, the IC50 was 1.55 µM.

As to `O=C(c1cc(Cl)ccc1Cl)N1CCN(c2ccc3nnc(-c4ccco4)n3n2)CC1`, the IC50 is > 50 µM (inactive).

On to `Cc1ccc2c(c1)N=C(c1ccc([N+](=O)[O-])cc1)CO2`, for which the IC50 was > 50 µM (inactive).

For `COc1cccc(NC(=O)c2ccc(F)cc2Cl)c1`, the IC50 was > 50 µM (inactive).

In the case of `COc1ccc(CCN2COc3c(cc(Cl)c4cccnc34)C2)cc1OC`, the IC50 was 13.6 µM.

On to `COc1cccc2c1NC(=O)C21CCN(C(=O)Nc2cccc(C)c2)CC1`, for which the IC50 is 16.3 µM.

As to `Cc1ccc(/C=C/C(=O)Nc2ccc3c(c2)OCCO3)cc1`, the IC50 was > 50 µM (inactive).

In the case of `CCN(CCCNC(=O)c1ccc(Cn2c(=O)[nH]c3ccccc3c2=O)cc1)c1ccccc1`, the IC50 is 6.5 µM.

For `O=C(NCc1ccccc1)c1ccc(-c2ccc(N3CCCC3)nn2)cc1`, the IC50 is > 50 µM (inactive).

For the molecule `COc1ccc(C2C(C(=O)Nc3ccccc3OC)=C(C)Nc3nnnn32)cc1Br` (stereo not given), the IC50 is 27.9 µM.

Turning to `O=C(NCc1ccc2c(c1)OCO2)c1cc2c(s1)-c1ccccc1OC2`, the IC50 was 3.58 µM.

Turning to `COc1ccc(CN(C(=O)c2cc(-c3ccc(C)cc3)on2)C2CCS(=O)(=O)C2)cc1` (stereo not given), the half-maximal inhibitory concentration (IC50) is 10.2 µM.

In the case of `COC1=CC(=O)c2c(O)c3c(c(C)c2C1=O)C[C@@]1(O)[C@H](O[C@H]2CC[C@H](O[C@H]4C[C@@](C)(O)[C@H](OC(=O)c5c(C)ccc(C)c5O)[C@H](C)O4)[C@@H](C)O2)C(=O)C(C(C)=O)=C(O)[C@@]1(O)C3=O`, the IC50 was 4.74 µM.

For the molecule `CCOC(=O)c1cn(C2CC2)c2cc(N3CCNCC3)c([N+](=O)[O-])cc2c1=O`, the IC50 was > 50 µM (inactive).

Consider `Cc1ccc(C(C)C)cc1OCCOCCN1CCNCC1`, for which the IC50 was > 50 µM (inactive).

For the molecule `Cc1cc(=O)c2c(O)oc(O)c3c(O)cc(=O)c1c32`, the IC50 was > 50 µM (inactive).

Consider `Cc1cccc(NC(=O)CSc2ccc(-n3cnc(-c4ccccc4)c3)nn2)c1`, for which the IC50 is 1.95 µM.

For `Cc1sc2ccn(C)c(=O)c2c1C(=O)NC1CCCC1`, the IC50 is 25.9 µM.

In the case of `Cc1ccccc1C(=O)c1ccc(C(=O)NC2CCCCCC2)[nH]1`, the IC50 was 2.41 µM.

Turning to `CCOC(=O)CSc1nnc(-c2cnn(-c3ccccc3)c2N)o1`, the IC50 was 18.2 µM.

As for `O=C(COC(=O)c1ccc2ncsc2c1)Nc1ccccc1F`, the IC50 was > 50 µM (inactive).

`Fc1cccc(-n2cc(-c3noc(-c4ccc[nH]4)n3)nn2)c1`: the IC50 was > 50 µM (inactive).

For `COCCn1c(=O)[nH]c2cc(C(=O)NCCNc3ccc([N+](=O)[O-])cc3C#N)ccc2c1=O`, the IC50 is 2.35 µM.

Consider `COc1cccc(NC(=O)c2nnn(-c3ccccc3)n2)c1`, for which the IC50 was > 50 µM (inactive).

Regarding `Cc1ccc(S(=O)(=O)N2CCC3(CC2)NC(=O)c2ccccc2N3)cc1C`, the IC50 is 27.2 µM.

In the case of `CC1(O)CC(=O)c2c(cc3cc(O)cc(O)c3c2O)C1` (stereo not given), the IC50 was 0.182 µM.

On to `Cc1ccc(-c2nc(NC(=O)COc3ccc(Cl)cc3)no2)cc1`, for which the IC50 was 1.35 µM.

Consider `CN(C)c1ccc(CCN2CCc3nc4cccnc4cc3C2)cc1`, for which the IC50 was > 50 µM (inactive).

`Cc1ccc(-c2nc(NC(=O)Nc3ccc(Cl)cc3)sc2C)cc1`: the IC50 was 5.88 µM.

Turning to `O=C(NCc1ccc(Br)cc1)c1ccc(-c2cccnc2)nc1`, the IC50 was 30.3 µM.

Consider `COc1cc(Cn2cnc3c([nH]c4ccc(Br)cc43)c2=O)cc(OC)c1`, for which the IC50 is 2.67 µM.

As for `Cc1ccc(NC(=O)c2ccc3c(c2)N(S(C)(=O)=O)CC3)cc1`, the IC50 is 34 µM.

On to `O=C(COC(=O)c1cc2c(s1)CCC2)c1ccc2[nH]c(=O)[nH]c2c1`, for which the IC50 is > 50 µM (inactive).

As to `Cc1ccc(C(=O)Nc2ccc(S(=O)(=O)N3CCCC3)cc2)cc1Br`, the IC50 was > 50 µM (inactive).

Take `O=C(/C=C/c1ccc(F)cc1)Nc1ccc2c(c1)OCCO2`: the IC50 was > 50 µM (inactive).

`CC(=O)N1CCc2cc(S(=O)(=O)NC(Cc3ccccc3)C(=O)Nc3cccc(Cl)c3C)ccc21` (stereo not given): the IC50 was 3.47 µM.

Take `O=C(CNC(=O)OCc1ccccc1)Nc1ccc(Br)cc1C(=O)c1ccccc1Cl`: the IC50 was 5.77 µM.

For `Cn1c(-c2nnc(SCC(=O)Nc3ccccc3F)o2)cc2ccccc21`, the IC50 is 14 µM.

For the molecule `COc1ccc(CCNC(=O)CSc2cn(CCNC(=O)c3ccc(F)cc3)c3ccccc23)cc1OC`, the IC50 was 19.9 µM.

For the molecule `CC(=O)c1ccc(N2C(=O)N(Cc3cccc([N+](=O)[O-])c3)c3ccccc3S2(=O)=O)cc1`, the IC50 was > 50 µM (inactive).

In the case of `Cc1nc(-c2cccc(NC(=O)C3CCN(c4ccccc4)C3=O)c2)no1` (stereo not given), the IC50 was 45.3 µM.

For `CCCC[C@@H](C)/C=C(C)/C=C(\C)C(=O)NC1=C[C@](O)(/C=C/C=C/C=C/C(=O)NC2=C(O)CCC2=O)[C@@H]2O[C@@H]2C1=O`, the IC50 was 4.76 µM.

For `COc1ccccc1NC(=O)CNC(=O)c1nn(-c2ccc(OC)c(OC)c2)c(=O)c2ccccc12`, the IC50 was 35.6 µM.

For `O=C(NC1CCCC1)C1CC(=O)N(c2cccc(-c3noc(-c4cccs4)n3)c2)C1` (stereo not given), the IC50 is > 50 µM (inactive).

As for `COc1ccc(CCNC(=O)CCCn2c(=O)c3ccccc3n(CC(=O)OCc3ccccc3)c2=O)cc1OC`, the IC50 is 18.3 µM.

Take `CC(C(=O)Nc1ccccc1)n1cnc2nc(N3CCCCC3)ncc2c1=O` (stereo not given): the IC50 was > 50 µM (inactive).

As for `O=c1[nH]c(-c2ccccn2)nc2c1CCN(Cc1cnn(-c3ccccc3)c1)C2`, the IC50 is > 50 µM (inactive).

For the molecule `Cc1cccc(NC(=O)Nc2ccc(C)n(CC(=O)Nc3ccccc3)c2=O)c1`, the half-maximal inhibitory concentration (IC50) is 4.62 µM.

Take `O=C(Cc1ccccc1F)N1CCC2(CC1)CC1(CO2)Nc2ccccc2-n2cccc21` (stereo not given): the IC50 is > 50 µM (inactive).

Consider `Cc1nc(SCC(=O)Nc2cc(Cl)ccc2C)c2oc3ccccc3c2n1`, for which the IC50 was 1.22 µM.

With `CC1CCN(c2cc(-n3cnc(C(=O)N4CCCCC4)c3)ncn2)CC1`, the IC50 is > 50 µM (inactive).
